For the assay, the system named is tau phosphorylation. Briefly: Tau phosphorylation after concussive injury in the rat (immunohistology for phosphorylated tau). It counts as in vivo. As to conditions: rat concussion model; 1 mg/kg intravenously at 30 minutes after induction of injury; assessed at 3 day time point. From the text:
Note that concussive injury in the rat causes extensive tau phosphorylation (B) by 3 days after the concussive event compared to non-injured animals (A).
Having established that hyperphosphorylated tau accumulates perivascularly following concussive injury, we used an animal model of concussion to investigate whether concussion causes perivascular release of substance P. We developed a rodent model of concussion to replicate the concussive event (Donkin et al., 2004, 7th International Neurotrauma Symposium, pp 75-78, Medimond Publishers, Bologna, Italy) and subsequently determined whether substance P was released after such an event. There was a clear increase in brain perivascular substance P immunoreactivity after the concussive event (FIG. 2).
Having shown that mechanical injury causes release of substance P after concussive injury, we then investigated whether a compound of formula (I) reduces tau hyperphosphorylation after concussive injury. […] Note that concussive injury in the rat causes extensive tau phosphorylation (B) by 3 days after the concussive event compared to non-injured animals (A). […] Thus, administration of a compound of formula (I″) prevents tau hyperphosphorylation and thus prevents the development of CTE.

As for `Cc1ccccc1-c1cc(N2CCN(C)CC2)ncc1C(=O)N(C)Cc1cc(C(F)(F)F)cc(C(F)(F)F)c1` [formula (I″)], the “effect on tau phosphorylation after concussive injury” value is reported as “almost complete inhibition of tau phosphorylation”.
